In ChEMBL document CHEMBL1151433, “National and regional assessment of antimicrobial resistance among community-acquired respiratory tract pathogens identified in a 2005-2006 U.S. Faropenem surveillance study” (2007):
≈ marks a conversion by molar mass, not a printed value.

How the values were obtained:
Streptococcus pneumoniae [1] = test: Antibacterial activity against penicillin-intermediate Streptococcus pneumoniae ATCC 49619 isolated from respiratory tract infected patients assessed as resistant isolates after 20 to 24 hrs by broth microdilution method; type: functional
Streptococcus pneumoniae [2] = test: Antibacterial activity against Streptococcus pneumoniae ATCC 49619 isolated from respiratory tract infected patients with 6 to 14 years of age after 20 to 24 hrs by broth microdilution method; type: functional
Streptococcus pneumoniae [3] = test: Antibacterial activity against Streptococcus pneumoniae ATCC 49619 isolated from respiratory tract infected patients more than 65 years of age after 20 to 24 hrs by broth microdilution method; type: functional
Streptococcus pneumoniae [4] = test: Antibacterial activity against Streptococcus pneumoniae ATCC 49619 isolated from respiratory tract infected patients more than 65 years of age assessed as resistant isolates after 20 to 24 hrs by broth microdilution method; type: functional
Haemophilus influenzae [5] = test: Antibacterial activity against Haemophilus influenzae […] isolated from respiratory tract infected patients after 20 to 24 hrs by broth microdilution method; type: functional; conditions: ATCC 49247
Streptococcus pneumoniae [6] = test: Antibacterial activity against Streptococcus pneumoniae ATCC 49619 isolated from respiratory tract infected inpatients assessed as resistant isolates after 20 to 24 hrs by broth microdilution method; type: functional
Streptococcus pneumoniae [7] = test: Antibacterial activity against Streptococcus pneumoniae ATCC 49619 isolated from respiratory tract infected patients assessed as susceptible isolates after 20 to 24 hrs by broth microdilution method; type: functional
Haemophilus influenzae [8] = test: Antibacterial activity against Haemophilus influenzae […] isolated from respiratory tract infected patients assessed as susceptible isolates after 20 to 24 hrs by broth microdilution method; type: functional, ATCC 49247
Streptococcus pneumoniae [9] = test: Antibacterial activity against penicillin-susceptible Streptococcus pneumoniae ATCC 49619 isolated from respiratory tract infected patients assessed as resistant isolates after 20 to 24 hrs by broth microdilution method; type: functional
Streptococcus pneumoniae [10] = test: Antibacterial activity against penicillin-susceptible Streptococcus pneumoniae ATCC 49619 isolated from respiratory tract infected patients assessed as susceptible isolates after 20 to 24 hrs by broth microdilution method; type: functional
Streptococcus pneumoniae [11] = test: Antibacterial activity against penicillin-susceptible Streptococcus pneumoniae ATCC 49619 isolated from respiratory tract infected patients after 20 to 24 hrs by broth microdilution method; type: functional
Haemophilus influenzae [12] = test: Antibacterial activity against beta lactamase-positive Haemophilus influenzae […] isolated from respiratory tract infected patients after 20 to 24 hrs by broth microdilution method; type: functional; conditions: ATCC 49247
Streptococcus pneumoniae [13] = test: Antibacterial activity against Streptococcus pneumoniae ATCC 49619 isolated from respiratory tract infected patients after 20 to 24 hrs by broth microdilution method; type: functional
Streptococcus pneumoniae [14] = test: Antibacterial activity against Streptococcus pneumoniae ATCC 49619 isolated from respiratory tract infected inpatients after 20 to 24 hrs by broth microdilution method; type: functional
Streptococcus pneumoniae [15] = test: Antibacterial activity against Streptococcus pneumoniae ATCC 49619 isolated from respiratory tract infected female patients assessed as resistant isolates after 20 to 24 hrs by broth microdilution method; type: functional
Streptococcus pneumoniae [16] = test: Antibacterial activity against Streptococcus pneumoniae ATCC 49619 isolated from respiratory tract infected patients within 2 years of age assessed as resistant isolates after 20 to 24 hrs by broth microdilution method; type: functional
Streptococcus pneumoniae [17] = test: Antibacterial activity against Streptococcus pneumoniae ATCC 49619 isolated from respiratory tract infected patients with 15 to 64 years of age after 20 to 24 hrs by broth microdilution method; type: functional
Streptococcus pneumoniae [18] = test: Antibacterial activity against Streptococcus pneumoniae ATCC 49619 isolated from respiratory tract infected patients with 6 to 14 years of age assessed as resistant isolates after 20 to 24 hrs by broth microdilution method; type: functional
Streptococcus pneumoniae [19] = test: Antibacterial activity against Streptococcus pneumoniae ATCC 49619 isolated from respiratory tract infected patients with 15 to 64 years of age assessed as resistant isolates after 20 to 24 hrs by broth microdilution method; type: functional
Moraxella catarrhalis = test: Antibacterial activity against Moraxella catarrhalis isolated from respiratory tract infected patients after 20 to 24 hrs by broth microdilution method; type: functional
Streptococcus pneumoniae [20] = test: Antibacterial activity against Streptococcus pneumoniae ATCC 49619 isolated from respiratory tract infected outpatients assessed as resistant isolates after 20 to 24 hrs by broth microdilution method; type: functional
Streptococcus pneumoniae [21] = test: Antibacterial activity against Streptococcus pneumoniae ATCC 49619 isolated from respiratory tract infected patients assessed as resistant isolates after 20 to 24 hrs by broth microdilution method; type: functional
Streptococcus pneumoniae [22] = test: Antibacterial activity against Streptococcus pneumoniae ATCC 49619 isolated from respiratory tract infected female patients after 20 to 24 hrs by broth microdilution method; type: functional
Streptococcus pneumoniae [23] = test: Antibacterial activity against Streptococcus pneumoniae ATCC 49619 isolated from respiratory tract infected patients with 3 to 5 years of age assessed as resistant isolates after 20 to 24 hrs by broth microdilution method; type: functional
Streptococcus pneumoniae [24] = test: Antibacterial activity against penicillin-resistant Streptococcus pneumoniae ATCC 49619 isolated from respiratory tract infected patients after 20 to 24 hrs by broth microdilution method; type: functional
Streptococcus pneumoniae [25] = test: Antibacterial activity against Streptococcus pneumoniae ATCC 49619 isolated from respiratory tract infected male patients assessed as resistant isolates after 20 to 24 hrs by broth microdilution method; type: functional
Streptococcus pneumoniae [26] = test: Antibacterial activity against Streptococcus pneumoniae ATCC 49619 isolated from respiratory tract infected male patients after 20 to 24 hrs by broth microdilution method; type: functional
Streptococcus pneumoniae [27] = test: Antibacterial activity against Streptococcus pneumoniae ATCC 49619 isolated from respiratory tract infected outpatients after 20 to 24 hrs by broth microdilution method; type: functional
Streptococcus pneumoniae [28] = test: Antibacterial activity against Streptococcus pneumoniae ATCC 49619 isolated from respiratory tract infected patients with 3 to 5 years of age after 20 to 24 hrs by broth microdilution method; type: functional
Streptococcus pneumoniae [29] = test: Antibacterial activity against penicillin-resistant Streptococcus pneumoniae ATCC 49619 isolated from respiratory tract infected patients assessed as resistant isolates after 20 to 24 hrs by broth microdilution method; type: functional
Streptococcus pneumoniae [30] = test: Antibacterial activity against penicillin-resistant Streptococcus pneumoniae ATCC 49619 isolated from respiratory tract infected patients assessed as susceptible isolates after 20 to 24 hrs by broth microdilution method; type: functional
Haemophilus influenzae [31] = test: Antibacterial activity against beta lactamase-positive Haemophilus influenzae […] isolated from respiratory tract infected patients assessed as susceptible isolates after 20 to 24 hrs by broth microdilution method; type: functional, ATCC 49247
Haemophilus influenzae [32] = test: Antibacterial activity against beta lactamase-negative Haemophilus influenzae […] isolated from respiratory tract infected patients assessed as susceptible isolates after 20 to 24 hrs by broth microdilution method; type: functional
Streptococcus pneumoniae [33] = test: Antibacterial activity against Streptococcus pneumoniae ATCC 49619 isolated from respiratory tract infected patients within 2 years of age after 20 to 24 hrs by broth microdilution method; type: functional
Streptococcus pneumoniae [34] = test: Antibacterial activity against penicillin-intermediate Streptococcus pneumoniae ATCC 49619 isolated from respiratory tract infected patients assessed as susceptible isolates after 20 to 24 hrs by broth microdilution method; type: functional
Streptococcus pneumoniae [35] = test: Antibacterial activity against penicillin-intermediate Streptococcus pneumoniae ATCC 49619 isolated from respiratory tract infected patients after 20 to 24 hrs by broth microdilution method; type: functional
Haemophilus influenzae [36] = test: Antibacterial activity against beta lactamase-negative Haemophilus influenzae […] isolated from respiratory tract infected patients after 20 to 24 hrs by broth microdilution method; type: functional; conditions: ATCC 49247

CC[C@H]1OC(=O)[C@H](C)[C@@H](O[C@H]2C[C@@](C)(OC)[C@@H](O)[C@H](C)O2)[C@H](C)[C@@H](O[C@@H]2O[C@H](C)C[C@H](N(C)C)[C@H]2O)[C@](C)(O)C[C@@H](C)CN(C)[C@H](C)[C@@H](O)[C@]1(C)O [AZITHROMYCIN]
Activity (Streptococcus pneumoniae [1]): 64.5%
MIC90 (Streptococcus pneumoniae [2]): > 16 µg/mL
MIC90 (Streptococcus pneumoniae [3]): > 16 µg/mL
Activity (Streptococcus pneumoniae [4]): 33.8%
MIC50 (Haemophilus influenzae [5]): 1 µg/mL (≈ 1.34 µM)
MIC90 (Haemophilus influenzae [5]): 2 µg/mL (≈ 2.67 µM)
Activity (Streptococcus pneumoniae [6]): 33%
Activity (Streptococcus pneumoniae [7]): 65.5%
Activity (Haemophilus influenzae [8]): 98.7%
Activity (Streptococcus pneumoniae [9]): 11.3%
Activity (Streptococcus pneumoniae [10]): 87.9%
MIC50 (Streptococcus pneumoniae [11]): ≤ 0.12 µg/mL
MIC90 (Streptococcus pneumoniae [11]): 4 µg/mL (≈ 5.34 µM)
MIC50 (Haemophilus influenzae [12]): 1 µg/mL (≈ 1.34 µM)
MIC90 (Haemophilus influenzae [12]): 2 µg/mL (≈ 2.67 µM)
MIC50 (Streptococcus pneumoniae [13]): ≤ 0.12 µg/mL
MIC90 (Streptococcus pneumoniae [13]): > 16 µg/mL
MIC90 (Streptococcus pneumoniae [14]): > 16 µg/mL
Activity (Streptococcus pneumoniae [15]): 31.2%
Activity (Streptococcus pneumoniae [16]): 50.5%
MIC90 (Streptococcus pneumoniae [17]): > 16 µg/mL
Activity (Streptococcus pneumoniae [18]): 36%
Activity (Streptococcus pneumoniae [19]): 27.6%
MIC50 (Moraxella catarrhalis): ≤ 0.12 µg/mL
MIC90 (Moraxella catarrhalis): ≤ 0.12 µg/mL
Activity (Streptococcus pneumoniae [20]): 34.8%
Activity (Streptococcus pneumoniae [21]): 34%
MIC90 (Streptococcus pneumoniae [22]): > 16 µg/mL
Activity (Streptococcus pneumoniae [23]): 42.4%
MIC50 (Streptococcus pneumoniae [24]): 32 µg/mL (≈ 42.7 µM)
MIC90 (Streptococcus pneumoniae [24]): > 16 µg/mL
Activity (Streptococcus pneumoniae [25]): 36%
MIC90 (Streptococcus pneumoniae [26]): > 16 µg/mL
MIC90 (Streptococcus pneumoniae [27]): > 16 µg/mL
MIC90 (Streptococcus pneumoniae [28]): > 16 µg/mL
Activity (Streptococcus pneumoniae [29]): 80.6%
Activity (Streptococcus pneumoniae [30]): 19.4%
Activity (Haemophilus influenzae [31]): 98.1%
Activity (Haemophilus influenzae [32]): 98.9%
MIC90 (Streptococcus pneumoniae [33]): > 16 µg/mL
Activity (Streptococcus pneumoniae [34]): 35.5%
MIC50 (Streptococcus pneumoniae [35]): 4 µg/mL (≈ 5.34 µM)
MIC90 (Streptococcus pneumoniae [35]): > 16 µg/mL
MIC50 (Haemophilus influenzae [36]): 1 µg/mL (≈ 1.34 µM)
MIC90 (Haemophilus influenzae [36]): 2 µg/mL (≈ 2.67 µM)

C=CC1=C(C(=O)O)N2C(=O)[C@@H](NC(=O)/C(=N\O)c3csc(N)n3)[C@H]2SC1 [CEFDINIR]
Activity (Streptococcus pneumoniae [1]): 14.8%
MIC90 (Streptococcus pneumoniae [2]): 8 µg/mL (≈ 20.2 µM)
MIC90 (Streptococcus pneumoniae [3]): 4 µg/mL (≈ 10.1 µM)
Activity (Streptococcus pneumoniae [4]): 15.8%
% susceptible (Haemophilus influenzae [5]): 1%
MIC50 (Haemophilus influenzae [5]): 0.25 µg/mL (≈ 0.632 µM)
Activity (Streptococcus pneumoniae [6]): 18.8%
Activity (Streptococcus pneumoniae [7]): 76.8%
Activity (Haemophilus influenzae [8]): 94.8%
Activity (Streptococcus pneumoniae [9]): 0%
Activity (Streptococcus pneumoniae [10]): 99.9%
MIC50 (Streptococcus pneumoniae [11]): ≤ 0.06 µg/mL
MIC90 (Streptococcus pneumoniae [11]): 0.12 µg/mL (≈ 0.303 µM)
% susceptible (Haemophilus influenzae [12]): 1%
MIC50 (Haemophilus influenzae [12]): 0.25 µg/mL (≈ 0.632 µM)
MIC50 (Streptococcus pneumoniae [13]): 0.12 µg/mL (≈ 0.303 µM)
MIC90 (Streptococcus pneumoniae [13]): 8 µg/mL (≈ 20.2 µM)
MIC90 (Streptococcus pneumoniae [14]): 8 µg/mL (≈ 20.2 µM)
Activity (Streptococcus pneumoniae [15]): 18.3%
Activity (Streptococcus pneumoniae [16]): 33.2%
MIC90 (Streptococcus pneumoniae [17]): 4 µg/mL (≈ 10.1 µM)
Activity (Streptococcus pneumoniae [18]): 19.8%
Activity (Streptococcus pneumoniae [19]): 15.4%
MIC50 (Moraxella catarrhalis): 0.25 µg/mL (≈ 0.632 µM)
MIC90 (Moraxella catarrhalis): 0.5 µg/mL (≈ 1.26 µM)
Activity (Streptococcus pneumoniae [20]): 19.6%
Activity (Streptococcus pneumoniae [21]): 19.2%
MIC90 (Streptococcus pneumoniae [22]): 8 µg/mL (≈ 20.2 µM)
Activity (Streptococcus pneumoniae [23]): 23.2%
MIC50 (Streptococcus pneumoniae [24]): 8 µg/mL (≈ 20.2 µM)
Activity (Streptococcus pneumoniae [25]): 19.8%
MIC90 (Streptococcus pneumoniae [26]): 8 µg/mL (≈ 20.2 µM)
MIC90 (Streptococcus pneumoniae [27]): 8 µg/mL (≈ 20.2 µM)
MIC90 (Streptococcus pneumoniae [28]): > 8 µg/mL
Activity (Streptococcus pneumoniae [29]): 100%
Activity (Streptococcus pneumoniae [30]): 0%
Activity (Haemophilus influenzae [31]): 94.4%
Activity (Haemophilus influenzae [32]): 95%
MIC90 (Streptococcus pneumoniae [33]): > 8 µg/mL
Activity (Streptococcus pneumoniae [34]): 67.5%
MIC50 (Streptococcus pneumoniae [35]): 0.25 µg/mL (≈ 0.632 µM)
MIC90 (Streptococcus pneumoniae [35]): 2 µg/mL (≈ 5.06 µM)
% susceptible (Haemophilus influenzae [36]): 1%
MIC50 (Haemophilus influenzae [36]): 0.25 µg/mL (≈ 0.632 µM)
